Test results taken from US7470708B2, “Acidic quinoline derivatives and their use for the prevention and/or treatment of hyperglycaemia-related pathologies” (Merck Patent Gesellschaft mit Beschraenkter Haftung, priority 2003, dated 2008).

Experiments:
insulin secretion = test: Insulin secretion test; type: cell-based; conditions: concentration of test compound 10^−5 M
Source text: According to the method described in Endocrinology, 1992 vol. 130 (1) pp. 167-178
• C corresponds to the concentration of test compound according to the invention INS. SEC. corresponds to the percentage of insulin secretion.

N0STZ rats = test: Antidiabetic activity in N0STZ rats (non-insulin-dependent diabetes induced by neonatal steptozotocin); type: in vivo; conditions: N0 STZ rat, oral, percentage change in glycaemia on D4 relative to D0
Protocol: Study of the Antidiabetic Activity in N0STZ Rats
The antidiabetic activity of the compounds of the formula (I) via the oral route, on an experimental model of non-insulin-dependent diabetes induced in rats by means of steptozotocin, was determined as follows.
The model of non-insulin-dependent diabetes is obtained in the rats by means of a neonatal injection (on the day of birth) of steptozotocin.
The diabetic rats used are eight weeks old. The animals are housed, from the day of birth to the day of the experiment, in an animal house at a regulated temperature of 21 to 22° C. and subjected to a fixed cycle of light (from 7 a.m. to 7 p.m.) and darkness (from 7p.m. to 7 a.m.). Their food consisted of a maintenance diet, and water and food were given “ad libitum”, with the exception of fasting two hours before the tests, during which period the food is removed (post-absorptive state).
The rats are treated orally for one (D1) or four (D4) days with the test product. Two hours after the final administration of the product and 30 minutes after anaesthetizing the animals with pentobarbital sodium (Nembutal®), a 300 μl blood sample is taken from the end of the tail.
By way of example, the results obtained are collated in the table below.

Row | melting point [°C] | Compound | INS. SEC. (percentage of insulin secretion) (insulin secretion) [%] | Percentage decrease in glycaemia at 200 mg/kg (N0STZ rats) [%]
1 | 205 | CCOc1cc(C(=O)O)nc2ccc(F)cc12 [Compound 1, 4-Ethoxy-6-fluoroquinoline-2-carboxylic acid] | 172 | −27
2 | > 250 | O=C(O)c1cc(OCc2ccc(Br)cc2F)c2cc(F)ccc2n1 [Compound 2, 4-(4-Bromo-2-fluorobenzyloxy)-6-fluoroquinoline-2-carboxylic acid] |  | 
3 | > 250 | O=C(O)c1cc(OCc2nc3ccccc3s2)c2cc(F)ccc2n1 [Compound 3, 4-(Benzothiazol-2-ylmethoxy)-6-fluoroquinoline-2-carboxylic acid] |  | 
4 | > 250 | COc1ccc2nc(C(=O)[O-])cc(OCc3ccc(Br)cc3F)c2c1.[Na+] [Compound 4, 4-(4-Bromo-2-fluorobenzyloxy)-6-methoxyquinoline-2-carboxylic acid, sodium salt] |  | 
5 | > 250 | O=C(O)c1cc(OC/C=C/COc2cc(C(=O)O)nc3ccc(F)cc23)c2cc(F)ccc2n1 [Compound 5, 4-({(E)-4-[(2-Carboxy-6-fluoro-4-quinolinyl)oxy]-2-butenyl}oxy)-6-fluoro-2-quinolinecarboxylic acid] |  | −17
6 | > 250 | CC(C)=CCOc1cc(C(=O)O)nc2ccc(F)cc12 [Compound 6, 6-Fluoro-4-(3-methylbut-2-enyloxy)quinoline-2-carboxylic acid] |  | −10
7 | > 250 | N#Cc1ccccc1-c1ccc(COc2cc(C(=O)O)nc3ccc(F)cc23)cc1 [Compound 7, 4-(2′-Cyanobiphenyl-4-ylmethoxy)-6-fluoroquinoline-2-carboxylic acid] |  | 
8 |  | COc1ccc(C(=O)COc2cc(C(=O)O)nc3ccc(F)cc23)cc1OC [Compound 63, 4-[2-(3,4-dimethoxyphenyl)-2-oxoethoxy]-6-fluoroquinoline-2-carboxylic acid] | 192 | 
9 |  | COC(=O)c1cc(OCCCCl)c2cc(F)ccc2n1 [Compound 64, methyl 4-(3-chloropropoxy)-6-fluoroquinoline-2-carboxylate] | 179 | 
10 |  | COC(=O)c1cc(OCC(C)CCl)c2cc(F)ccc2n1 (centres unmarked) [Compound 65, methyl 4-(3-chloro-2-methylpropoxy)-6-fluoroquinoline-2-carboxylate] | 161 | 
